Experimental data as given in the supplement of paper PMC10307832.

Compound: Nc1ccn([C@@H]2O[C@H](CO)[C@@H](O)C2(F)F)c(=O)n1 [Gemcitabine] + CS(=O)(=O)N1CCN(Cc2cc3nc(-c4cccc5[nH]ncc45)nc(N4CCOCC4)c3s2)CC1 [Pictilisib] (partner 1 µM)
Test: relative viability (nuclei count vs DMSO), 5 days (fraction); higher = more cells survive
How it was run: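 Lung cancer cell lines, seeded in 1536-well plates, were treated the following day by pin tool with a single drug or with five library-drug doses (not always all listed) in √10 steps on top of a fixed anchor-drug dose. Cells were fixed and nuclei stained in one step after 5 days, and nuclei were counted. Relative viability is the nuclei count for treated wells divided by that for vehicle wells, reported as medians of duplicate plates.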

Cell Line | relative viability (first compound 0.001 µM) | relative viability (first compound 0.003162 µM) | relative viability (first compound 0.01 µM) | relative viability (first compound 0.03162 µM) | relative viability (first compound 0.1 µM)
201T | 0.692 | 0.71 | 0.686 | 0.496 | 0.321
A549 | 0.74 | 0.367 | 0.0384 | 0.0238 | 0.0155
A-427 | 0.748 | 0.673 | 0.438 | 0.155 | 0.0739
ABC-1 | 0.907 | 0.832 | 0.599 | 0.38 | 0.278
BEN | 0.547 | 0.477 | 0.258 | 0.128 | 0.119
CAL-12T | 0.289 | 0.393 | 0.359 | 0.267 | 0.242
COR-L23 | 0.686 | 0.942 | 0.39 | 0.148 | 0.0795
COR-L 105 | 0.43 | 0.377 | 0.364 | 0.27 | 0.269
Calu-6 | 0.994 | 0.705 | 0.223 | 0.162 | 0.108
ChaGo-K-1 | 0.664 | 0.388 | 0.363 | 0.198 | 0.239
EBC-1 | 0.355 | 0.237 | 0.15 | 0.151 | 0.143
EKVX | 0.424 | 0.336 | 0.226 | 0.153 | 0.108
EMC-BAC-2 | 0.615 | 0.58 | 0.402 | 0.196 | 0.184
EPLC-272H | 0.286 | 0.115 | 0.304 | 0.232 | 0.143
H3255 | 0.524 | 0.299 | 0.334 | 0.194 | 0.137
HARA | 0.299 | 0.483 | 0.532 | 0.261 | 0.0888
HCC-15 | 0.763 | 0.804 | 0.762 | 0.323 | 0.0914
HCC-44 | 0.58 | 0.568 | 0.593 | 0.392 | 0.234
HCC-78 | 0.198 | 0.247 | 0.201 | 0.148 | 0.132
HCC-366 | 0.188 | 0.136 | 0.0591 | 0.0347 | 0.0366
HCC-827 | 1.11 | 0.845 | 0.89 | 0.591 | 0.389
HOP-62 | 0.78 | 0.464 | 0.315 | 0.0682 | 0.0859
IA-LM | 0.336 | 0.332 | 0.219 | 0.1 | 0.0556
LC-2-ad | 0.517 | 0.726 | 0.242 | 0.129 | 0.105
LCLC-97TM1 | 0.141 | 0.167 | 0.126 | 0.11 | 0.12
LCLC-103H | 0.579 | 0.641 | 0.659 | 0.627 | 0.417

Cell Line | relative viability (first compound 0.001 µM) | relative viability (first compound 0.003162 µM) | relative viability (first compound 0.01 µM) | relative viability (first compound 0.03162 µM) | relative viability (first compound 0.1 µM)
LK-2 | 0.527 |  | 0.419 | 0.271 | 0.288
LOU-NH91 | 0.496 | 0.475 | 0.486 | 0.389 | 0.34
LU99A | 0.33 | 0.31 | 0.313 | 0.369 | 0.333
LXF-289 | 0.761 | 0.758 | 0.592 | 0.275 | 0.11
NCI-H23 | 0.446 | 0.328 | 0.143 | 0.146 | 0.104
NCI-H322M | 0.445 | 0.178 | 0.251 | 0.239 | 0.244
NCI-H358 | 0.338 | 0.27 | 0.188 | 0.194 | 0.161
NCI-H441 | 0.521 | 0.343 | 0.196 | 0.109 | 0.126
NCI-H460 | 0.37 | 0.328 | 0.0742 | 0.0745 | 0.0388
NCI-H520 | 0.333 | 0.321 | 0.254 | 0.199 | 0.161
NCI-H596 | 0.369 | 0.436 | 0.438 | 0.335 | 0.293
NCI-H647 | 0.304 | 0.163 | 0.0953 | 0.0685 | 0.0658
NCI-H650 | 0.918 | 0.502 | 0.246 | 0.166 | 0.166
NCI-H661 | 0.352 | 0.388 | 0.288 | 0.224 | 0.242
NCI-H727 | 0.552 | 0.459 | 0.304 | 0.216 | 0.211
NCI-H838 | 0.476 | 0.501 | 0.468 | 0.346 | 0.141
NCI-H1299 | 0.637 | 0.728 | 0.709 | 0.883 | 0.655
NCI-H1355 | 0.409 | 0.343 | 0.202 | 0.127 | 0.124
NCI-H1395 | 0.544 | 0.666 | 0.413 | 0.351 | 0.347
NCI-H1437 | 0.409 | 0.457 | 0.258 | 0.118 | 0.0772
NCI-H1563 | 0.599 | 0.669 | 0.652 | 0.634 | 0.506
NCI-H1650 | 0.524 | 0.466 | 0.267 | 0.181 | 0.144
NCI-H1651 | 0.501 | 0.54 | 0.409 | 0.136 | 0.0858
NCI-H1666 | 0.326 | 0.471 | 0.306 | 0.284 | 0.274
NCI-H1703 | 0.208 | 0.227 | 0.158 | 0.154 | 0.132
NCI-H1734 | 0.455 | 0.387 | 0.233 | 0.151 | 0.113

Cell Line | relative viability (first compound 0.001 µM) | relative viability (first compound 0.003162 µM) | relative viability (first compound 0.01 µM) | relative viability (first compound 0.03162 µM) | relative viability (first compound 0.1 µM)
NCI-H1755 | 0.417 | 0.45 | 0.355 | 0.249 | 0.188
NCI-H1792 | 0.238 | 0.226 | 0.111 | 0.0979 | 0.0699
NCI-H1793 | 0.262 | 0.282 | 0.291 | 0.186 | 0.176
NCI-H1915 | 1.02 | 0.949 | 0.909 | 0.857 | 0.229
NCI-H1944 | 0.352 | 0.373 | 0.355 | 0.241 | 0.22
NCI-H1975 | 0.315 | 0.282 | 0.229 | 0.168 | 0.136
NCI-H1993 | 0.855 | 0.804 | 0.651 | 0.695 | 0.647
NCI-H2009 | 0.872 | 0.419 | 0.157 | 0.128 | 0.101
NCI-H2023 | 0.248 | 0.266 | 0.143 | 0.106 | 0.0734
NCI-H2085 | 0.45 | 0.448 | 0.461 | 0.344 | 0.347
NCI-H2087 | 0.73 | 0.662 | 0.386 | 0.193 | 0.199
NCI-H2126 | 0.474 | 0.485 | 0.479 | 0.349 | 0.278
NCI-H2170 | 0.318 | 0.359 | 0.215 | 0.157 | 0.156
NCI-H2228 | 0.375 | 0.417 | 0.294 | 0.236 | 0.123
NCI-H2347 | 0.554 | 0.655 | 0.648 | 0.385 | 0.348
NCI-H2405 | 0.432 | 0.255 | 0.272 | 0.2 | 0.122
NCI-H3122 | 0.648 | 0.595 | 0.553 | 0.265 | 0.159
PC-3 [JPC-3] | 0.847 | 0.61 | 0.514 | 0.33 | 0.286
PC-14 | 0.684 | 0.435 | 0.139 | 0.036 | 0.0292
RERF-LC-KJ | 0.775 | 0.458 | 0.408 | 0.304 | 0.168
SK-LU-1 | 0.6 | 0.537 | 0.213 | 0.172 | 0.192
SK-MES-1 | 0.333 | 0.254 | 0.164 | 0.136 | 0.149
SW 1573 | 0.543 | 0.272 | 0.178 | 0.086 | 0.0746
UMC-11 | 0.942 | 0.908 | 0.821 | 0.714 | 0.228
